# Measurements: US10351566B2, “Therapeutic compounds for pain and synthesis thereof” (priority 2015, dated 2019)
# Like-named read-outs stand apart in the source and are kept apart here. Marks after values point to notes of the source that are not given here.
# Legend:
# 14-3-3σ = 14-3-3σ expression in plasma and hind paw skin of Taxol dosed mice (Somascan); type: in vivo
# Experimental: The Taxol model was used in order to investigate the MoA of Formula 1.
# Animals showing chemotherapy-induced pain following repeated doses of taxol were treated with either vehicle gabapentin or Formula 1. Plasma was collected following the first dose of the test items and after 7 days of daily treatment. Skin from hind paws were also collected following 7 days of daily treatment. The tissues were processed and the expression levels on 1310 proteins were assessed (Somascan provided by SomaLogic, Inc., Boulder, Colo.).
# Three statistical methods were used to identify protein expression that discriminated between Formula 1, gabapentin and vehicle on day 8, following a single dose, and on study day 14 following multiple dosing.
# A comparison between day 8 and day 14 within each group was also performed. All methods were conducted on scaled data. First, a Student's t-test was performed in order to compare proteins between groups. Second, the LASSO (least absolute shrinkage and selection operator) method was applied. This is a regression technique that simultaneously performs variable selection and model coefficient modification. These models used group as the outcome and all 1310 proteins as the starting predictors. LASSO was then tuned to shrink unimportant coefficients to zero, leaving approximately the ten most important predictors of (or discriminators between) the groups. […]
# [1] = type: in vitro ADME; details: rat plasma
# Experimental: (§1) Formula 1 was stable in both mouse and human plasma, with t90 values greater than 4 h, whereas it was unstable in rat plasma, with a t90 of less than 1 h (t90 should be greater than 4 h in order to be considered stable). Most of the efficacy and safety pharmacology was therefore run in mice.
# human plasma = type: in vitro ADME
# Experimental: as §1
# mouse plasma = type: in vitro ADME
# Experimental: as §1
# CYP2C9 = CYP2C9 (Homo sapiens, UniProt P11712); test: Reversible CYP450 inhibition, cocktail format; type: biochemical; details: preliminary
# CYP2C9, sequence (P11712 whole entry): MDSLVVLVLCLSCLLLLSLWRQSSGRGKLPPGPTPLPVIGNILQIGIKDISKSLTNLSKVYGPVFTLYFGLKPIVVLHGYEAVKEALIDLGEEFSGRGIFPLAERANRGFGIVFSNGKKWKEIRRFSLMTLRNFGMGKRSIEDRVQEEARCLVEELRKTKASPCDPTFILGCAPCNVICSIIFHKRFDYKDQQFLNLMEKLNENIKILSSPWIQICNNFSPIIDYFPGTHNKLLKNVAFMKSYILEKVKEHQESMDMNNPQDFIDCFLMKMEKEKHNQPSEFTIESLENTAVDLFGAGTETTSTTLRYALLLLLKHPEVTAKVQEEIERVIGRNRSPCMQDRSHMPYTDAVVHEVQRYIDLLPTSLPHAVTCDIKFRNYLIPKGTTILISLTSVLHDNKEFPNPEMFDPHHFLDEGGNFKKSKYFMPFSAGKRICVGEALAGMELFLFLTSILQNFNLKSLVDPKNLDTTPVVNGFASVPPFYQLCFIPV
# Experimental: (§2) Preliminary in vitro studies on reversible inhibition of major CYP450 enzymes were conducted in a cocktail format for this compound. The IC50 values were 4 μM for CYP2C9, 5 μM for CYP2C19, and greater than 10 μM for CYP3A4, 2C8, 2D6, and 1A2. If total plasma concentrations in humans are less than 0.4 μM, then in vivo drug interaction studies in clinical trials may not be required for this compound.
# CYP2D6 = CYP2D6 (Homo sapiens, UniProt P10635); test: Reversible CYP450 inhibition, cocktail format; type: biochemical; details: 2D6, reversible inhibition, preliminary
# CYP2D6, sequence (P10635 whole entry): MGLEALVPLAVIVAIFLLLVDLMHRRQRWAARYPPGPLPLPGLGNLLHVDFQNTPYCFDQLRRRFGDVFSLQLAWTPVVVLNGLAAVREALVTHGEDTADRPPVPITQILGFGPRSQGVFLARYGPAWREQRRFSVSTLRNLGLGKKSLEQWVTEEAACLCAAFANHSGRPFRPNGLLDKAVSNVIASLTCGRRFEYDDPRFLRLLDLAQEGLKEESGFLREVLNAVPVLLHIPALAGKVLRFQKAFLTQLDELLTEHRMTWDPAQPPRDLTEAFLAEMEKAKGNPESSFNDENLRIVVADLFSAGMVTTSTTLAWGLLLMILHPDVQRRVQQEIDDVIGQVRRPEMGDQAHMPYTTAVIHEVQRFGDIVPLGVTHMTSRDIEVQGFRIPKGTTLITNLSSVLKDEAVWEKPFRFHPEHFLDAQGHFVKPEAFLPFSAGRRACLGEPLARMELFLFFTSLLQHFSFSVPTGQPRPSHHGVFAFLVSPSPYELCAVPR
# Experimental: as §2
# CYP3A4 = CYP3A4 (Homo sapiens, UniProt P08684); test: Reversible CYP450 inhibition, cocktail format; type: biochemical; details: preliminary
# CYP3A4, sequence (P08684 whole entry): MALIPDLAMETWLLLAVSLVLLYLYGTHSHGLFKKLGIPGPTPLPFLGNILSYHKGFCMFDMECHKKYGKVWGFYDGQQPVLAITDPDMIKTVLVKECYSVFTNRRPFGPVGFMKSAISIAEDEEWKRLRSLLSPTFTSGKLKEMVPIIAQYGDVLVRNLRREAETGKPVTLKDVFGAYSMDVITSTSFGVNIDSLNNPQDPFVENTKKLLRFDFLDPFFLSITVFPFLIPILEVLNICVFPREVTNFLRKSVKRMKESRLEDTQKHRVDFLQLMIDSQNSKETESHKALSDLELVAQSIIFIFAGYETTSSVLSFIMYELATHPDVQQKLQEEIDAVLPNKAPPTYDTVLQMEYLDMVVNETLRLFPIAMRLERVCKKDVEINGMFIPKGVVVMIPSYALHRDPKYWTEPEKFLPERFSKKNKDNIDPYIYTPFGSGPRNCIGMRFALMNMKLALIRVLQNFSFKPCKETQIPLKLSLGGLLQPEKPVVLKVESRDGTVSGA
# Experimental: as §2
# [2] = type: in vivo, mice
# Experimental: At 4 days, vehicle-treated animals gained approximately 1% body weight, going from 25.24±0.74 g to 25.50±0.64 g. Formula 1 treated animals went from 25.28±1.04 g to 25.82±1.25 g.
# Animals treated with Formula 1 at a dose of 10 mg/kg IP for a period of 31 days gained […] body weight (changing from 21.44±0.18 g to 25.49±0.46 g). Vehicle treated animals gained […] body weight (changing from 21.45±0.19 g to 23.97±0.62 g; p=0.07), therefore no significant changes were found.
# [3] = tested on: Taxol-induced neuropathic pain; test: Taxol-induced neuropathic pain in mice, SC administration; type: in vivo
# Experimental: Study outline in brief: Animals were dosed daily with Taxol for a period of 8 consecutive days (Day 0 to Day 7). On study day 8, prior to drug dosing, the decrease in withdrawal force (tactile allodynia) was verified by applying the von Frey test. After assigning the animals to their treatment groups, the animals were treated daily for a period of 5 days with either vehicle or Formula 1 at different doses. Gabapentin at a dose of 150 mg/kg was dosed only on days of testing (day 8 and day 14).
# Response to heat stimuli was assessed using the hotplate apparatus set at 50ΥC. […] At baseline prior to Taxol dosing, the animals' response time to heat was 28.10±1.60 sec (vehicle-treated group). […] However, it is interesting to note that the beneficial activity of Formula 1 on heat hyperalgesia was more noticeable on study day 14, following repeated daily dosing of the compound, than on study day 8 following a single dose (Table 6).
# [4] = type: in vivo, mice; details: Brain, SC, Mean
smiles,measurement,setting,value
"CC(C)(C)C(=O)O[C@@H]1[C@@H]2[C@H]3C[C@H](C[C@@H]1N3Cc1ccccn1)CN2C(=O)CC(F)(F)F (relative stereo) [Formula 1, (2S*,3S*,3aS*,6R*,7aR*)-1-(pyridin-2-ylmethyl)-4-(3,3,3-trifluoropropanoyl)octahydro-1H-2,6-methanopyrrolo[3,2-b]pyridin-3-yl pivalate]",14-3-3σ expression in the skin,"14-3-3σ; hind plantar skin, study day 14, repeated dosing, vs. vehicle",significantly reduced
same,relative decrease in stratifin (14-3-3σ),"14-3-3σ; plasma, day 8 to day 14, daily treatment, Taxol dosed mice, vs. naïve animals",~50%
same,t90,[1],less than 1 h
same,t90,human plasma,greater than 4 h
same,t90,mouse plasma,greater than 4 h
same,IC50,CYP2C9,4 µM
same,IC50,CYP2D6,> 10 µM
same,IC50,CYP3A4,> 10 µM
same,body weight at end,[2]; 10 mg/kg IP for 31 days,25.49 ± 0.46 g
same,body weight at start,[2]; 10 mg/kg IP for 31 days,21.44 ± 0.18 g
same,body weight gained,[2]; 10 mg/kg IP for 31 days,15.64%
same,body weight at 4 days,[2]; 4-day observation,25.82 ± 1.25 g
same,body weight at start,[2]; 4-day observation,25.28 ± 1.04 g
same,effect on body weight gain,"[2]; naïve mice, dosing for 31 days",did not affect body weight gain
same,"response time to heat (50° C.), Mean","[3]; SC 1 mg/kg, Day 0 Pre-Taxol",28.8 s
same,"response time to heat (50° C.), Mean","[3]; SC 1 mg/kg, Day 8, 1 h",11.9 s
same,"response time to heat (50° C.), Mean","[3]; SC 1 mg/kg, Day 8, 2 h",22.8* sec
same,"response time to heat (50° C.), Mean","[3]; SC 1 mg/kg, Day 8, 4 h",18.9* sec
same,"response time to heat (50° C.), Mean","[3]; SC 1 mg/kg, Day 8, 6 h",18.5* sec
same,"response time to heat (50° C.), Mean","[3]; SC 1 mg/kg, Day 8 Pre-dosing",11.4 s
same,"response time to heat (50° C.), Mean","[3]; SC 1 mg/kg, Day 14, 1 h",14.9* sec
same,"response time to heat (50° C.), Mean","[3]; SC 1 mg/kg, Day 14, 2 h",24.6* sec
same,"response time to heat (50° C.), Mean","[3]; SC 1 mg/kg, Day 14, 4 h",24.2* sec
same,"response time to heat (50° C.), Mean","[3]; SC 1 mg/kg, Day 14, 6 h",22.0* sec
same,"response time to heat (50° C.), Mean","[3]; SC 1 mg/kg, Day 14 Pre-dosing",15.8* sec
same,"response time to heat (50° C.), Mean","[3]; SC 1 mg/kg, Day 17, No dosing",12.4 s
same,"response time to heat (50° C.), Mean","[3]; SC 3 mg/kg, Day 0 Pre-Taxol",28.6 s
same,"response time to heat (50° C.), Mean","[3]; SC 3 mg/kg, Day 8, 1 h",15.7 s
same,"response time to heat (50° C.), Mean","[3]; SC 3 mg/kg, Day 8, 2 h",19.4 s
same,"response time to heat (50° C.), Mean","[3]; SC 3 mg/kg, Day 8, 4 h",14.8 s
same,"response time to heat (50° C.), Mean","[3]; SC 3 mg/kg, Day 8, 6 h",14.1 s
same,"response time to heat (50° C.), Mean","[3]; SC 3 mg/kg, Day 8 Pre-dosing",12.2 s
same,"response time to heat (50° C.), Mean","[3]; SC 3 mg/kg, Day 14, 1 h",18.4* sec
same,"response time to heat (50° C.), Mean","[3]; SC 3 mg/kg, Day 14, 2 h",24.8* sec
same,"response time to heat (50° C.), Mean","[3]; SC 3 mg/kg, Day 14, 4 h",23.6* sec
same,"response time to heat (50° C.), Mean","[3]; SC 3 mg/kg, Day 14, 6 h",20.6* sec
same,"response time to heat (50° C.), Mean","[3]; SC 3 mg/kg, Day 14 Pre-dosing",19.7 s
same,"response time to heat (50° C.), Mean","[3]; SC 3 mg/kg, Day 17, No dosing",12.2 s
same,"response time to heat (50° C.), Mean","[3]; SC 10 mg/kg, Day 0 Pre-Taxol",28.5 s
same,"response time to heat (50° C.), Mean","[3]; SC 10 mg/kg, Day 8, 1 h",15.7 s
same,"response time to heat (50° C.), Mean","[3]; SC 10 mg/kg, Day 8, 2 h",17.8* sec
same,"response time to heat (50° C.), Mean","[3]; SC 10 mg/kg, Day 8, 4 h",15.8 s
same,"response time to heat (50° C.), Mean","[3]; SC 10 mg/kg, Day 8, 6 h",14.3 s
same,"response time to heat (50° C.), Mean","[3]; SC 10 mg/kg, Day 8 Pre-dosing",11.2 s
same,"response time to heat (50° C.), Mean","[3]; SC 10 mg/kg, Day 14, 1 h",18.5* sec
same,"response time to heat (50° C.), Mean","[3]; SC 10 mg/kg, Day 14, 2 h",18.7* sec
same,"response time to heat (50° C.), Mean","[3]; SC 10 mg/kg, Day 14, 4 h",19.3* sec
same,"response time to heat (50° C.), Mean","[3]; SC 10 mg/kg, Day 14, 6 h",15.5* sec
same,"response time to heat (50° C.), Mean","[3]; SC 10 mg/kg, Day 14 Pre-dosing",14.5 s
same,"response time to heat (50° C.), Mean","[3]; SC 10 mg/kg, Day 17, No dosing",10.4 s
same,response time to heat (hotplate 50° C.),"[3]; Taxol mice, SC, 10 mg/kg, 3 mg/kg and 1 mg/kg",active in increasing the response time
same,"analgesic activity (withdrawal force, von Frey)","[3]; Taxol mice, SC, dose as low as 1 mg/kg",profound analgesic activity
same,Dose of maximum activity,"[3]; Taxol model, SC, mice",1 mg/kg
same,Duration of activity at maximum effect,"[3]; Taxol model, SC, mice",3 days
same,Level of activity (% of maximum effect-baseline),"[3]; Taxol model, SC, mice",100%
same,HL_Lambda_z,[4],0.39 h
